# Read-outs that look alike come from different tables or passages of the source.
# Columns and labels:
# Assay type in all cases: cell-based
# SK-OV-3 = assay: NCI in vitro cytotoxicity (SRB, 48 h), Ovarian panel; conditions: Homo sapiens; SK-OV-3, Ovarian; 48 h exposure
# Melanoma cell lines = assay: NCI in vitro cytotoxicity, whole panel; conditions: Homo sapiens
# M14 = assay: NCI in vitro cytotoxicity (SRB, 48 h), Melanoma panel; conditions: Homo sapiens, 48 h exposure
# [1] = tested on: sixty human tumour cell lines; assay: NCI in vitro cytotoxicity, all panels
# HCT-116 = assay: NCI in vitro cytotoxicity (SRB, 48 h), Colon panel; conditions: Homo sapiens; HCT-116, Colon; 48 h exposure
# SF-539 = assay: NCI in vitro cytotoxicity (SRB, 48 h), CNS panel; conditions: Homo sapiens; SF-539, CNS; 48 h exposure
# HL-60(TB) = assay: NCI in vitro cytotoxicity (SRB, 48 h), Leukemia panel; conditions: Homo sapiens, 48 h exposure
# SR = assay: as above; conditions: Homo sapiens, 48 h exposure
# UACC-62 = assay: NCI in vitro cytotoxicity (SRB, 48 h), Melanoma panel; conditions: Homo sapiens; UACC-62, Melanoma; 48 h exposure
# RXF 393 = assay: NCI in vitro cytotoxicity (SRB, 48 h), Renal panel; conditions: Homo sapiens; RXF 393, Renal; 48 h exposure
# IGROV1 = assay: NCI in vitro cytotoxicity (SRB, 48 h), Ovarian panel; conditions: Homo sapiens, IGROV-1; IGROV1, Ovarian; 48 h exposure
# HS 578T = assay: NCI in vitro cytotoxicity (SRB, 48 h), Breast panel; conditions: Homo sapiens, 48 h exposure
# Breast cancer cell lines = assay: NCI in vitro cytotoxicity, whole panel; conditions: Homo sapiens
# Leukemia cell lines = assay: NCI in vitro cytotoxicity, whole panel; conditions: Homo sapiens
# RPMI-8226 = assay: NCI in vitro cytotoxicity (SRB, 48 h), Leukemia panel; conditions: Homo sapiens; RPMI-8226, Leukemia; 48 h exposure
# UO-31 = assay: NCI in vitro cytotoxicity (SRB, 48 h), Renal panel; conditions: Homo sapiens; UO-31, Renal; 48 h exposure
# SK-MEL-2 = assay: NCI in vitro cytotoxicity (SRB, 48 h), Melanoma panel; conditions: Homo sapiens; SK-MEL-2, Melanoma; 48 h exposure
# NCI/ADR-RES = assay: NCI in vitro cytotoxicity (SRB, 48 h), Ovarian panel; conditions: Homo sapiens, 48 h exposure
# [2] = tested on: Prostate cancer cell lines; assay: NCI in vitro cytotoxicity, whole panel; conditions: Homo sapiens
# 786-0 = assay: NCI in vitro cytotoxicity (SRB, 48 h), Renal panel; conditions: Homo sapiens; 786-0, Renal; 48 h exposure
# SNB-19 = assay: NCI in vitro cytotoxicity (SRB, 48 h), CNS panel; conditions: Homo sapiens; SNB-19, CNS; 48 h exposure
# NCI-H23 = assay: NCI in vitro cytotoxicity (SRB, 48 h), Non-small cell lung panel; conditions: Homo sapiens, 48 h exposure
# Renal cancer cell lines = assay: NCI in vitro cytotoxicity, whole panel; conditions: Homo sapiens
# MOLT-4 = assay: NCI in vitro cytotoxicity (SRB, 48 h), Leukemia panel; conditions: Homo sapiens; MOLT-4, Leukemia; 48 h exposure
# NCI-H460 = assay: NCI in vitro cytotoxicity (SRB, 48 h), Non-small cell lung panel; conditions: Homo sapiens, 48 h exposure
# TK-10 = assay: NCI in vitro cytotoxicity (SRB, 48 h), Renal panel; conditions: Homo sapiens; TK-10, Renal; 48 h exposure
# SK-MEL-5 = assay: NCI in vitro cytotoxicity (SRB, 48 h), Melanoma panel; conditions: Homo sapiens; SK-MEL-5, Melanoma; 48 h exposure
# MCF7 = assay: NCI in vitro cytotoxicity (SRB, 48 h), Breast panel; conditions: Homo sapiens; MCF7, Breast; 48 h exposure
# MDA-MB-231/ATCC = assay: as above; conditions: Homo sapiens, Breast, 48 h exposure
# COLO 205 = assay: NCI in vitro cytotoxicity (SRB, 48 h), Colon panel; conditions: Homo sapiens; COLO 205, Colon; 48 h exposure
# EKVX = assay: NCI in vitro cytotoxicity (SRB, 48 h), Non-small cell lung panel; conditions: Homo sapiens, 48 h exposure
smiles,measurement,setting,value
"COc1cc(C(=O)/C=C/c2c(-c3ccc(F)cc3)nc3sc(C)cn23)cc(OC)c1OC [Compound 19e, (E)-3-(6-(4-fluorophenyl)-2-methylimidazo[2,1-b]thiazol-5-yl)-1-(3,4,5-trimethoxyphenyl)prop-2-en-1-one]",GI50,SK-OV-3,6.12 µM
same,GI50,"Melanoma cell lines; Melanoma, average of six to eight cell lines, read-out: Log10 GI50 (converted)",3.02 µM
same,CC50,"Melanoma cell lines; Melanoma, average of six to eight cell lines, read-out: Log10 LC50 (converted)",≥ 100 µM
same,GI50,"Melanoma cell lines; exposure period of at least 48 hrs, read-out: GI50, range over melanoma cell lines",0.51 to 7.07 µM
same,GI50,M14,5.12 µM
same,GI50,"[1]; Homo sapiens, sixty cell lines, nine panels, read-out: GI50 against sixty cell lines in nine cell panels",< 9 µM
same,Log10 TGI mean graph midpoint (MG_MID),[1]; human tumour cell lines,−4.14
same,"in vitro cytotoxicity, in words",[1]; human tumour cell lines,significant cytotoxicity
same,GI50,"[1]; human tumour cell lines, read-out: Log10 GI50 mean graph midpoint (MG_MID) (converted)",4.79 µM
same,CC50,"[1]; human tumour cell lines, read-out: Log10 LC50 mean graph midpoint (MG_MID) (converted)",95.5 µM
same,GI50,HCT-116,2.92 µM
same,GI50,SF-539,6.23 µM
same,GI50,HL-60(TB),2.8 µM
same,GI50,SR,0.8 µM
same,GI50,UACC-62,2.91 µM
same,GI50,RXF 393,5.75 µM
same,GI50,IGROV1,8.71 µM
same,GI50,HS 578T,8.29 µM
same,GI50,"Breast cancer cell lines; Breast, average of six to eight cell lines, read-out: Log10 GI50 (converted)",3.63 µM
same,CC50,"Breast cancer cell lines; Breast, average of six to eight cell lines, read-out: Log10 LC50 (converted)",≥ 100 µM
same,IC50,"Breast cancer cell lines; exposure period of at least 48 hrs, read-out: IC50, range over breast cell lines",1.81 to 8.29 µM
same,GI50,"Leukemia cell lines; Leukemia, average of six to eight cell lines, read-out: Log10 GI50 (converted)",2.69 µM
same,CC50,"Leukemia cell lines; Leukemia, average of six to eight cell lines, read-out: Log10 LC50 (converted)",≥ 100 µM
same,GI50,"Leukemia cell lines; exposure period of at least 48 hrs, read-out: GI50, range over leukemia cell lines",0.8 to 7.19 µM
same,GI50,RPMI-8226,2.32 µM
same,GI50,UO-31,2.95 µM
same,GI50,SK-MEL-2,5.75 µM
same,GI50,NCI/ADR-RES,2.63 µM
same,GI50,"[2]; Prostate cell, exposure period of at least 48 hrs, read-out: GI50, range over prostate cell lines",2.41 to 7.52 µM
same,GI50,"[2]; Prostate, average of the panel's cell lines, read-out: Log10 GI50 (converted)",4.27 µM
same,LC50,"[2]; Prostate, average of the panel's cell lines, read-out: Log10 LC50 (converted)",≥ 100 µM
same,GI50,786-0,8.88 µM
same,GI50,SNB-19,87.8 µM
same,GI50,NCI-H23,2.24 µM
same,GI50,"Renal cancer cell lines; Renal, average of six to eight cell lines, read-out: Log10 GI50 (converted)",6.31 µM
same,CC50,"Renal cancer cell lines; Renal, average of six to eight cell lines, read-out: Log10 LC50 (converted)",≥ 100 µM
same,GI50,"Renal cancer cell lines; exposure period of at least 48 hrs, read-out: GI50, range over renal cell lines",1.78 to 28 µM
same,GI50,MOLT-4,1.62 µM
same,GI50,NCI-H460,3.87 µM
same,GI50,TK-10,28 µM
same,GI50,SK-MEL-5,0.51 µM
same,GI50,MCF7,1.81 µM
same,GI50,MDA-MB-231/ATCC,5.38 µM
same,GI50,COLO 205,4.94 µM
same,GI50,EKVX,2.29 µM
